How the values were obtained:
[1] = biological target: GDP-bound NRAS wild-type protein (Homo sapiens, UniProt P01111); experiment: Binding to NRAS by surface plasmon resonance (SPR), Single Cycle Kinetics
[2] = biological target: GDP-bound HRAS wild-type protein (Homo sapiens, UniProt P01112); experiment: Binding to HRAS by surface plasmon resonance (SPR), Single Cycle Kinetics
[3] = SPR, GDP-bound NRAS wild-type vs GDP-bound KRAS wild-type
[4] = SPR, GDP-bound HRAS wild-type vs GDP-bound KRAS wild-type
[5] = KD ratio, GDP-bound NRAS wild-type vs GDP-bound KRAS wild-type, SPR
[6] = KD ratio, GDP-bound HRAS wild-type vs GDP-bound KRAS wild-type, SPR

Sequence of GDP-bound HRAS wild-type protein (P01112 whole entry): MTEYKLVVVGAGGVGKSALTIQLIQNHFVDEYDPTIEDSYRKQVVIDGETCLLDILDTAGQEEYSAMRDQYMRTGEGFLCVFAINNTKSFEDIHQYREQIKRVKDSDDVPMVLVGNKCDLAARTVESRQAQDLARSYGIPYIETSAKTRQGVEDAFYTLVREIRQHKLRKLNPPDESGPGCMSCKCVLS
Sequence of GDP-bound NRAS wild-type protein (P01111 whole entry): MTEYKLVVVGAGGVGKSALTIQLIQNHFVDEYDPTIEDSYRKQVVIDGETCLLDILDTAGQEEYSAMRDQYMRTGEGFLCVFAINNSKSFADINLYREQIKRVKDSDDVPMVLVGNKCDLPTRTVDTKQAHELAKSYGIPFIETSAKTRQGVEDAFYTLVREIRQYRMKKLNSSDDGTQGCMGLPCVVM

## CCC[C@H]1C(=O)N[C@@H]([C@@H](C)CC)C(=O)N(C)CC(=O)N(C)[C@H]2C/C=C\CCN(C2=O)[C@@H](CC2CCC(F)(F)CC2)C(=O)N(C)CC(=O)N[C@@H](CCc2ccc(C(F)(F)F)c(OC)c2)C(=O)N2C[C@H](OCC)C[C@H]2C(=O)NC2(CC(C)(C)C2)C(=O)N(C)[C@@H](C(CC)CC)C(=O)N(C)[C@H](C(=O)N(C)C)CC(=O)N1C [PP2482]
[1]; [3]
  NRAS/KRAS (ratio of KD value with respect to NRAS to KD value with respect to KRAS): A (a compound having 10 or more and less than 20 is denoted as A)
[2]; [4]
  HRAS/KRAS (ratio of KD value with respect to HRAS to KD value with respect to KRAS): A (a compound having 10 or more and less than 20 is denoted as A)

## CCO[C@@H]1C[C@H]2C(=O)NC3(CCC3)C(=O)N(C)[C@@H](C(CC)CC)C(=O)N(C)[C@H](C(=O)N(C)C)CC(=O)N(C)[C@H]3CCCC/C=C/c4ccc(cc4)C[C@@H](C(=O)N(C)CC(=O)N[C@@H](CCc4ccc(Cl)c(Cl)c4)C(=O)N2C1)N1CC/C=C\C[C@@H](C1=O)N(C)C(=O)CN(C1CC1)C(=O)[C@H]([C@@H](C)CC)NC3=O [PP2605]
[1]; class symbols
  NRAS/KRAS (ratio of KD value with respect to GDP-bound NRAS wild-type protein to KD value with respect to KRAS): AA (a compound having 20 or more is denoted as AA)
[2]; class symbols
  HRAS/KRAS (ratio of KD value with respect to GDP-bound HRAS wild-type protein to KD value with respect to KRAS): A (a compound having 10 or more and less than 20 is denoted as A)

## CCCO[C@H]1CCN2C(=O)[C@H](CCc3cc(F)c(C(F)(F)F)c(F)c3)NC(=O)CN(C)C(=O)[C@H](Cc3ccc(C(F)(F)F)cc3)N3CCCCC[C@@H](C3=O)N(C)C(=O)CN(C)C(=O)[C@H]([C@@H](C)CC)NC(=O)[C@H](CC(C)C)N(C)C(=O)C[C@@H](C(=O)N3CCOCC3)N(C)C(=O)[C@H](C3CCCC3)N(C)C(=O)C3(CCC3)NC(=O)[C@H]12 [PP1069]
[1]; [5]
  NRAS/KRAS (ratio of KD value with respect to NRAS to KD value with respect to KRAS): A (a compound having 10 or more and less than 20 is denoted as A)
[2]; [6]
  HRAS/KRAS (ratio of KD value with respect to HRAS to KD value with respect to KRAS): B (a compound having 3 or more and less than 10 is denoted as B)

## CCO[C@@H]1C[C@H]2C(=O)N(C)C3(CCC3)C(=O)N(C)[C@@H](C3CCCC3)C(=O)N(C)[C@H](C(=O)N(C)C)CC(=O)N(C)[C@@H](CC)C(=O)N[C@@H]([C@@H](C)CC)C(=O)N(C)CC(=O)N(C)[C@H]3C/C=C\CCN(C3=O)[C@@H](Cc3ccc(C(F)(F)F)cc3)C(=O)N(C)CC(=O)N[C@@H](CCc3cc(F)c(C(F)(F)F)c(F)c3)C(=O)N2C1 [PP1779]
[1]; [5]
  NRAS/KRAS (ratio of KD value for NRAS to KD value for KRAS): A (a compound having 10 or more and less than 20 is denoted as A)
[2]; [6]
  HRAS/KRAS (ratio of KD value for HRAS to KD value for KRAS): B (a compound having 3 or more and less than 10 is denoted as B)

## CC[C@H](C)[C@@H]1NC(=O)[C@H](CC(C)C)N(C)C(=O)C[C@@H](C(=O)N2CCOCC2)N(C)C(=O)[C@H](C2CCCC2)N(C)C(=O)C2(CCCC2)NC(=O)[C@@H]2CC(F)(F)CN2C(=O)[C@H](CCc2ccc(C(F)(F)F)c(Cl)c2)NC(=O)CN(C)C(=O)[C@H](Cc2ccc(F)cc2)N2CCCCC[C@@H](C2=O)N(C)C(=O)CN(C)C1=O [PP0966]
[1]; [5]
  NRAS/KRAS (ratio of KD value with respect to NRAS to KD value with respect to KRAS): B (a compound having 3 or more and less than 10 is denoted as B)
[2]; [6]
  HRAS/KRAS (ratio of KD value with respect to HRAS to KD value with respect to KRAS): B (a compound having 3 or more and less than 10 is denoted as B)

## CC[C@H](C)[C@@H]1NC(=O)[C@H](CC(C)C)N(C)C(=O)C[C@@H](C(=O)N2CCOCC2)N(C)C(=O)[C@H](C2CCCC2)N(C)C(=O)C2(CCCC2)NC(=O)[C@@H]2CCCN2C(=O)[C@H](CCc2ccc(C(F)(F)F)c(Cl)c2)NC(=O)CN(C)C(=O)[C@H](Cc2ccc(OC(F)(F)F)cc2)N2CC=CC[C@@H](C2=O)N(C)C(=O)CN(C)C1=O [PP0537]
[1]; SPR
  NRAS/KRAS (ratio of KD value with respect to GDP-bound NRAS wild-type protein to KD value with respect to KRAS): C (A compound having a KD ratio of 0.1 or more and less than 3 is denoted as C)
[2]; SPR
  HRAS/KRAS (ratio of KD value with respect to GDP-bound HRAS wild-type protein to KD value with respect to KRAS): C (A compound having a KD ratio of 0.1 or more and less than 3 is denoted as C)

## CCC[C@H]1C(=O)N[C@@H](C2CCC2)C(=O)N(C)CC(=O)N(C)[C@H]2C/C=C\CCN(C2=O)[C@@H](Cc2ccc(C)cc2)C(=O)N(C)CC(=O)N[C@@H](CCc2ccc(C(F)(F)F)c(F)c2)C(=O)N2C[C@H](OCC)C[C@H]2C(=O)NC2(CC(C)(C)C2)C(=O)N(C)[C@@H](C2CCC2)C(=O)N(C)[C@H](C(=O)N(C)C)CC(=O)N1C [PP2242]
[1]; [3]
  NRAS/KRAS (ratio of KD value with respect to NRAS to KD value with respect to KRAS): A (a compound having 10 or more and less than 20 is denoted as A)
[2]; [4]
  HRAS/KRAS (ratio of KD value with respect to HRAS to KD value with respect to KRAS): A (a compound having 10 or more and less than 20 is denoted as A)
